Experimental data from US12559492B2, “BRAF degraders” (C4 Therapeutics, Inc., priority 2020, dated 2026).

Target: BRAF^V600E protein (Homo sapiens, UniProt P15056, V600E)
Assay: HiBiT cellular BRAF V600E degradation assay
Format: cell-based
Details: 24 h incubation; for DC50: A375.10 cells (HiBiT tag knocked in at N-terminal of BRAF V600E), concentration at which 50% of total cellular BRAF V600E is degraded; for Emax / HiBit 24 h Emax: A375.10 cells, Emax = amount of residual protein remaining in the cell after compound treatment; for Emax: read-out: HiBit 24 h Emax

Chain of BRAF^V600E protein (P15056 whole entry V600E): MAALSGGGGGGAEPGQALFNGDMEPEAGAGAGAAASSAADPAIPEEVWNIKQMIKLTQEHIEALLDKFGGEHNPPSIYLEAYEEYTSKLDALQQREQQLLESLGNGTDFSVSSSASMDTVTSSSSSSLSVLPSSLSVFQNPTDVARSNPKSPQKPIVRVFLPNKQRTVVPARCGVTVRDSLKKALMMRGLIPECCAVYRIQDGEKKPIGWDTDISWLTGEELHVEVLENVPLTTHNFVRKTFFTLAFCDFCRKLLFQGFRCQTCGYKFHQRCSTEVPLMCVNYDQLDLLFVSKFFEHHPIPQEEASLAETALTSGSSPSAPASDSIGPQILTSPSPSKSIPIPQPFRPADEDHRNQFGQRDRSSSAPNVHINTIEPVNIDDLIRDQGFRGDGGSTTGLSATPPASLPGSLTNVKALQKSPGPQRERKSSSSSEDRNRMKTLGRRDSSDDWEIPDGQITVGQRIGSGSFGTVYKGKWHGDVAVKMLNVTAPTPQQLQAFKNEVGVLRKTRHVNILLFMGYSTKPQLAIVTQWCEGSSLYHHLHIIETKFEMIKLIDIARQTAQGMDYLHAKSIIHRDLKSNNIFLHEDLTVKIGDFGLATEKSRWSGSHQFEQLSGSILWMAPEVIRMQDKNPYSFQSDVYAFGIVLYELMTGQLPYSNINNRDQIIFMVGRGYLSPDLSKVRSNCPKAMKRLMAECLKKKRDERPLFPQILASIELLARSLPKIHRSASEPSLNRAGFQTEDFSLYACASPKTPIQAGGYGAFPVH

Row | SMILES | DC50 | Emax | DC50 (formic acid) | HiBit 24 h Emax (formic acid) | HiBit 24 h Emax
1 | CCN(C)S(=O)(=O)Nc1ccc(F)c(C(=O)c2c[nH]c3ncc(-c4ccc(N5CCC(NC(=O)CN6CCC(c7ccc(OC8CCC(=O)NC8=O)cn7)CC6)CC5)cc4)cc23)c1F (stereo not shown) [Example A64, 2-[4-[5-(2,6-Dioxopiperidin-3-yl)oxypyridin-2-yl]piperidin-1-yl]-N-[1-[4-[3-[3-[[ethyl(methyl)sulfamoyl]amino]-2,6-difluorobenzoyl]-1H-pyrrolo[2,3-b]pyridin-5-yl]phenyl]piperidin-4-yl]acetamide;formic acid] | 0.067 µM | 13% | – | – | –
2 | CCN(C)S(=O)(=O)Nc1ccc(F)c(C(=O)c2c[nH]c3ncc(-c4ccc(N5CCC(NC(=O)CN6CCC(c7ccc(OC8CCC(=O)NC8=O)cn7)CC6)CC5)nc4)cc23)c1F (stereo not shown) [Example A65, 2-[4-[5-(2,6-Dioxopiperidin-3-yl)oxypyridin-2-yl]piperidin-1-yl]-N-[1-[5-[3-[3-[[ethyl(methyl)sulfamoyl]amino]-2,6-difluorobenzoyl]-1H-pyrrolo[2,3-b]pyridin-5-yl]pyridin-2-yl]piperidin-4-yl]acetamide;formic acid] | 0.151 µM | 18% | – | – | –
3 | CCN(C)S(=O)(=O)Nc1ccc(F)c(C(=O)c2c[nH]c3ncc(-c4ccc(N5CCC(NC(=O)CN6CCC(c7ccc(NC8CCC(=O)NC8=O)cc7)CC6)CC5)nc4)cc23)c1F (stereo not shown) [Example A66, 2-[4-[4-[(2,6-Dioxopiperidin-3-yl)amino]phenyl]piperidin-1-yl]-N-[1-[5-[3-[3-[[ethyl(methyl)sulfamoyl]amino]-2,6-difluorobenzoyl]-1H-pyrrolo[2,3-b]pyridin-5-yl]pyridin-2-yl]piperidin-4-yl]acetamide; formic acid] | 0.017 µM | 13% | – | – | –
4 | CCN(C)S(=O)(=O)Nc1ccc(F)c(C(=O)c2c[nH]c3ncc(-c4ccc(N5CCC(NC(=O)CN6CCC(c7ccc(NC8CCC(=O)NC8=O)cc7)CC6)CC5)cc4)cc23)c1F.O=CO (stereo not shown) [Example A67, 2-[4-[4-[(2,6-Dioxopiperidin-3-yl)amino]phenyl]piperidin-1-yl]-N-[1-[4-[3-[3-[[ethyl(methyl)sulfamoyl]amino]-2,6-difluorobenzoyl]-1H-pyrrolo[2,3-b]pyridin-5-yl]phenyl]piperidin-4-yl]acetamide; formic acid] | – | – | 0.007 µM | 11% | –
5 | CCN(C)S(=O)(=O)Nc1ccc(F)c(C(=O)c2c[nH]c3ncc(-c4cnc(N5CCN(C(=O)CN6CCN(c7ccc(OC8CCC(=O)NC8=O)cn7)CC6)CC5)nc4)cc23)c1F (stereo not shown) [Example A68, 5-[2-[4-[2-[4-[5-(2,6-Dioxopiperidin-3-yl)oxypyridin-2-yl]piperazin-1-yl]acetyl]piperazin-1-yl]pyrimidin-5-yl]-3-[3-[[ethyl(methyl)sulfamoyl]amino]-2,6-difluorobenzoyl]-1H-pyrrolo[2,3-b]pyridine] | 0.05 µM | 11% | – | – | –
6 | CCN(C)S(=O)(=O)Nc1ccc(F)c(C(=O)c2c[nH]c3ncc(-c4cnc(N5CCN(C(=O)CN6CCC(c7ccc(NC8CCC(=O)NC8=O)cn7)CC6)CC5)nc4)cc23)c1F (stereo not shown) [Example A69, 5-[2-[4-[2-[4-[5-[(2,6-Dioxopiperidin-3-yl)amino]pyridin-2-yl]piperidin-1-yl]acetyl]piperazin-1-yl]pyrimidin-5-yl]-3-[3-[[ethyl(methyl)sulfamoyl]amino]-2,6-difluorobenzoyl]-1H-pyrrolo[2,3-b]pyridine] | 0.007 µM | – | – | – | 12%
7 | CCN(C)S(=O)(=O)Nc1ccc(F)c(C(=O)c2c[nH]c3ncc(-c4cnc(N5CCN(C(=O)CN6CCC(c7ccc(N(C)C8CCC(=O)NC8=O)cc7)CC6)CC5)nc4)cc23)c1F (stereo not shown) [Example A70, 5-[2-[4-[2-[4-[4-[(2,6-Dioxopiperidin-3-yl)-methylamino]phenyl]piperidin-1-yl]acetyl]piperazin-1-yl]pyrimidin-5-yl]-3-[3-[[ethyl(methyl)sulfamoyl]amino]-2,6-difluorobenzoyl]-1H-pyrrolo[2,3-b]pyridine] | 0.019 µM | 18% | – | – | –
8 | O=C1CCC(Nc2ccc(C3CCN(CC(=O)N4CCN(c5ccc(-c6cnc7[nH]cc(C(=O)c8c(F)ccc(NS(=O)(=O)N9CCCC9)c8F)c7c6)cn5)CC4)CC3)cc2)C(=O)N1 (stereo not shown) [Example A72, N-[3-[5-[6-[4-[2-[4-[4-[(2,6-Dioxopiperidin-3-yl)amino]phenyl]piperidin-1-yl]acetyl]piperazin-1-yl]pyridin-3-yl]-1H-pyrrolo[2,3-b]pyridine-3-carbonyl]-2,4-difluorophenyl]pyrrolidine-1-sulfonamide] | 0.00447 µM | 16.1% | – | – | –
9 | O=C1CCC(Nc2ccc(N3CCN(CC(=O)N4CCN(c5ccc(-c6cnc7[nH]cc(C(=O)c8c(F)ccc(NS(=O)(=O)N9CCCC9)c8F)c7c6)cn5)CC4)CC3)cc2)C(=O)N1 (stereo not shown) [Example A73, N-[3-[5-[6-[4-[2-[4-[4-[(2,6-Dioxopiperidin-3-yl)amino]phenyl]piperazin-1-yl]acetyl]piperazin-1-yl]pyridin-3-yl]-1H-pyrrolo[2,3-b]pyridine-3-carbonyl]-2,4-difluorophenyl]pyrrolidine-1-sulfonamide] | 0.006 µM | 19% | – | – | –
10 | O=C1CCC(Nc2ccc(N3CCN(CC(=O)N4CCN(c5ccc(-c6cnc7[nH]cc(C(=O)c8c(F)ccc(NS(=O)(=O)N9CC[C@@H](F)C9)c8F)c7c6)cc5)CC4)CC3)cc2)C(=O)N1 (stereo partly drawn) [Example A74, (3R)—N-[3-[5-[4-[4-[2-[4-[4-[(2,6-Dioxopiperidin-3-yl)amino]phenyl]piperazin-1-yl]acetyl]piperazin-1-yl]phenyl]-1H-pyrrolo[2,3-b]pyridine-3-carbonyl]-2,4-difluorophenyl]-3-fluoropyrrolidine-1-sulfonamide] | 0.007 µM | 19% | – | – | –
11 | O=C1CCC(Nc2ccc(C3CCN(CC(=O)N4CCN(c5ccc(-c6cnc7[nH]cc(C(=O)c8c(F)ccc(NS(=O)(=O)N9CC[C@@H](F)C9)c8F)c7c6)cc5)CC4)CC3)cc2)C(=O)N1 (stereo partly drawn) [Example A75, (3R)—N-[3-[5-[4-[4-[2-[4-[4-[(2,6-Dioxopiperidin-3-yl)amino]phenyl]piperidin-1-yl]acetyl]piperazin-1-yl]phenyl]-1H-pyrrolo[2,3-b]pyridine-3-carbonyl]-2,4-difluorophenyl]-3-fluoropyrrolidine-1-sulfonamide] | 0.00446 µM | 16.2% | – | – | –
12 | CCN(C)S(=O)(=O)Nc1ccc(F)c(C(=O)c2c[nH]c3ncc(-c4ccc(N5CC6(CN(C(=O)CN7CCC(c8ccc(NC9CCC(=O)NC9=O)cc8)CC7)C6)C5)nc4)cc23)c1F (stereo not shown) [Example A76, 5-[6-[2-[2-[4-[4-[(2,6-dioxopiperidin-3-yl)amino]phenyl]piperidin-1-yl]acetyl]-2,6-diazaspiro[3.3]heptan-6-yl]pyridin-3-yl]-3-[3-[[ethyl(methyl)sulfamoyl]amino]-2,6-difluorobenzoyl]-1H-pyrrolo[2,3-b]pyridine] | 0.0149 µM | 16.9% | – | – | –
13 | CCN(C)S(=O)(=O)Nc1ccc(F)c(C(=O)c2c[nH]c3ncc(-c4ccc(N5CC6(CN(C(=O)CN7CCN(c8ccc(NC9CCC(=O)NC9=O)cc8)CC7)C6)C5)nc4)cc23)c1F (stereo not shown) [Example A77, 5-[6-[2-[2-[4-[4-[(2,6-Dioxopiperidin-3-yl)amino]phenyl]piperazin-1-yl]acetyl]-2,6-diazaspiro[3.3]heptan-6-yl]pyridin-3-yl]-3-[3-[[ethyl(methyl)sulfamoyl]amino]-2,6-difluorobenzoyl]-1H-pyrrolo[2,3-b]pyridine] | 0.047 µM | 31% | – | – | –
14 | CCN(C)S(=O)(=O)Nc1ccc(F)c(C(=O)c2c[nH]c3ncc(-c4cnc(N5CCN(C(=O)[C@H]6C[C@@H](N7CCC(c8ccc(NC9CCC(=O)NC9=O)cc8)CC7)C6)CC5)nc4)cc23)c1F (stereo partly shown) [Example A78, 5-[2-[4-[3-[4-[4-[(2,6-Dioxopiperidin-3-yl)amino]phenyl]piperidin-1-yl]cyclobutanecarbonyl]piperazin-1-yl]pyrimidin-5-yl]-3-[3-[[ethyl(methyl)sulfamoyl]amino]-2,6-difluorobenzoyl]-1H-pyrrolo[2,3-b]pyridine] | 0.00893 µM | 15.4% | – | – | –
15 | CCN(C)S(=O)(=O)Nc1ccc(F)c(C(=O)c2c[nH]c3ncc(-c4cnc(N5CCN(C(=O)CN6CCC(n7cc(NC8CCC(=O)NC8=O)cn7)CC6)CC5)nc4)cc23)c1F (stereo not shown) [Example A79, 5-[2-[4-[2-[4-[4-[(2,6-Dioxopiperidin-3-yl)amino]pyrazol-1-yl]piperidin-1-yl]acetyl]piperazin-1-yl]pyrimidin-5-yl]-3-[3-[[ethyl(methyl)sulfamoyl]amino]-2,6-difluorobenzoyl]-1H-pyrrolo[2,3-b]pyridine] | 0.06 µM | 22% | – | – | –
16 | CCN(C)S(=O)(=O)Nc1ccc(F)c(C(=O)c2c[nH]c3ncc(-c4ccc(N5CCN(C(=O)CN6CCC(n7cc(NC8CCC(=O)NC8=O)cn7)CC6)CC5)cc4)cc23)c1F (stereo not shown) [Example A80, 5-[4-[4-[2-[4-[4-[(2,6-Dioxopiperidin-3-yl)amino]pyrazol-1-yl]piperidin-1-yl]acetyl]piperazin-1-yl]phenyl]-3-[3-[[ethyl(methyl)sulfamoyl]amino]-2,6-difluorobenzoyl]-1H-pyrrolo[2,3-b]pyridine] | 0.0275 µM | 21.6% | – | – | –
17 | CCN(C)S(=O)(=O)Nc1ccc(F)c(C(=O)c2c[nH]c3ncc(-c4ccc(N5CCN(C(=O)CCCN6CCC(c7ccc(C8CCC(=O)NC8=O)cc7)CC6)CC5)nc4)cc23)c1F (stereo not shown) [Example A81, 5-[6-[4-[4-[4-[4-(2,6-Dioxopiperidin-3-yl)phenyl]piperidin-1-yl]butanoyl]piperazin-1-yl]pyridin-3-yl]-3-[3-[[ethyl(methyl)sulfamoyl]amino]-2,6-difluorobenzoyl]-1H-pyrrolo[2,3-b]pyridine] | 0.049 µM | 13% | – | – | –
